Data as given in US20220220152A1, “BIVALENT ANTAGONISTS OF INHIBITORS OF APOPTOSIS PROTEINS” (Hepagene Therapeutics (HK) Limited, priority 2019, published 2022).
pIC50: −log10 of the molar value.

Columns and labels:
[1] = target: T1, XIAP-BIR3 (Homo sapiens, UniProt P98170); test: XIAP-BIR3 fluorescence polarization binding assay; conditions: FP, probe AbuRPFK-5FAM (SM5F) 5 nM, XIAP-BIR3 40 nM, 60 min at 25° C.
T1 construct: XIAP-BIR3; purchased Reaction Biology APT-11-374
Outline: (§1)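 Fluorescence polarization competition using 5-carboxyfluorescein-labelled peptide probe AbuRPFK-5FAM; protein and compound preincubated 15 min, probe added, then 60 min at 25° C.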

[2] = target: T2, cIAP1-BIR3 (Homo sapiens, UniProt Q13490); test: cIAP1-BIR3 fluorescence polarization binding assay; conditions: FP, probe AbuRPFK-5FAM (SM5F) 5 nM, cIAP1-BIR3 15 nM, 60 min at 25° C.
T2 construct: cIAP1-BIR3; purchased Reaction Biology APT-11-370
T2 sequence (Q13490 253-363 limits assumed): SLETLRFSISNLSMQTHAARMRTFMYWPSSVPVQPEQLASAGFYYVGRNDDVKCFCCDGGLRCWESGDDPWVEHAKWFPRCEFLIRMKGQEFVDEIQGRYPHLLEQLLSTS
Outline: as §1

[3] = target: T3, cIAP2-BIR3 (Homo sapiens, UniProt Q13489); test: cIAP2-BIR3 fluorescence polarization binding assay; conditions: FP, probe AbuRPFK-5FAM (SM5F) 5 nM, cIAP2-BIR3 80 nM, 60 min at 25° C.
T3 construct: cIAP2-BIR3; purchased Reaction Biology APT-11-372
T3 sequence (Q13489 238-349 limits assumed): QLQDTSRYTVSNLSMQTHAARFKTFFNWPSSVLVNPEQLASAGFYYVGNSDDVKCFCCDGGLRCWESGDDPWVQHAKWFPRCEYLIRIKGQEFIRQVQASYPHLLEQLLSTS
Outline: as §1

T1 sequence (P98170 241-356 limits assumed): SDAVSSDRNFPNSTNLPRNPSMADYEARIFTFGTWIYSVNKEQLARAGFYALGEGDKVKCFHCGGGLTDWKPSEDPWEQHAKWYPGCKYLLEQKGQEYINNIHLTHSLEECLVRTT

Row | Structure (SMILES) | pIC50 [1] | pIC50 [2] | pIC50 [3]
1 | CN[C@@H](C)C(=O)N[C@H](C(=O)N1CCC[C@H]1C(=O)N[C@@H]1CCCc2c(-c3ccc(-c4cccc5c4CCC[C@H]5NC(=O)[C@@H]4CCCN4C(=O)[C@@H](NC(=O)[C@H](C)NC)C(C)(C)C)cc3)cccc21)C(C)(C)C [Compound III-J, (2S)-1-[(2S)-3,3-dimethyl-2-[(2S)-2-(methylamino)propanamido]butanoyl]-N-[(1R)-5-[4-[(5R)-5-[(2S)-[-(2S)-3,3-dimethyl-2-[(2S)-2-(methylamino)propanamido]butanoyl]pyrrolidine-2-amido]-5,6,7,8-tetrahydronaphthalen-1-yl]phenyl]-1,2,3,4-tetrahydronaphthalen-1-yl]pyrrolidine-2-carboxamide] | 7.00 to 8.00 | 8.00 to 9.00 | 8.00 to 9.00
2 | CN[C@@H](C)C(=O)N[C@H](C(=O)N1CCC[C@H]1C(=O)N[C@@H]1CCOc2c(-c3cccc4c3OCC[C@H]4NC(=O)[C@@H]3CCCN3C(=O)[C@@H](NC(=O)[C@H](C)NC)C(C)(C)C)cccc21)C(C)(C)C [Compound V-D, (2S)-1-[(2S)-3,3-dimethyl-2-[(2S)-2-(methylamino)propanamido]butanoyl]-N-[(4R)-8-[(4R)-4-[(2S)-1-(2S)-3,3-dimethyl-2-[(2S)-2-(methylamino)propanamido]butanoyl]pyrrolidine-2-amido]-3,4-dihydro-2H-1-benzopyran-8-yl-3,4-dihydro-2H-1-benzopyran-4-yl]pyrrolidine-2-carboxamide] | 7.00 to 8.00 | 8.00 to 9.00 | 7.00 to 8.00
3 | CN[C@@H](C)C(=O)N[C@H](C(=O)N1CCC[C@H]1C(=O)N[C@@H]1CCCc2cc(-c3ccc(-c4ccc5c(c4)CCC[C@H]5NC(=O)[C@@H]4CCCN4C(=O)[C@@H](NC(=O)[C@H](C)NC)C4CCCCC4)cc3)ccc21)C1CCCCC1 [Compound III-L, (2S)-1-[(2S)-2-cyclohexyl-2-[(2S)-2-(methylamino)propanamido]acetyl]-N-[(1R)-6-[4-[(5R)-5-[(2S)-1-[(2S)-2-cyclohexyl-2-[(2S)-2-(methylamino)propanamido]acetyl]pyrolidine-2-amido]-5,6,7,8-tetrahydronaphthalen-2-yl]phenyl]-1,2,3,4-tetrahydronaphthalen-1-yl]pyrrolidine-2-carboxamide] | 6.00 to 7.00 | 7.00 to 8.00 | 6.00 to 7.00
4 | CN[C@@H](C)C(=O)N[C@H](C(=O)N1CCC[C@H]1C(=O)N[C@@H]1CCCc2c(-c3cccc4c3CCC[C@H]4NC(=O)[C@@H]3CCCN3C(=O)[C@@H](NC(=O)[C@H](C)NC)C(C)C)cccc21)C(C)C [Compound V-M, (2S)-1-[(2S)-3-methyl-2-[(2S)-2-(methylamino)propanamido]butanoyl]-N-[(5R,5′R)-5′-[(2S)-1-[(2S)-3-methy-2-[(2S)-2-(methylamino)propanamido]butanoyl]pyrolidine-2-amido]-5H,5′H,6H,6′H,7H,7′H,8H,8′H-[1,1′-binaphthalen]-5-yl]pyrrolidine-2-carboxamide] | 7.00 to 8.00 | 8.00 to 9.00 | 8.00 to 9.00
5 | CN[C@@H](C)C(=O)N[C@H](C(=O)N1CCC[C@H]1C(=O)N[C@@H]1CCCc2c(OCCOCCOc3cccc4c3CCC[C@H]4NC(=O)[C@@H]3CCCN3C(=O)[C@@H](NC(=O)[C@H](C)NC)C3CCCCC3)cccc21)C1CCCCC1 [Compound II, (2S)-1-[(2S)-2-Cyclohexyl-2-[(2S)-2-(methylamino)propanamido]acetyl]-N-[(1R)-5-[2-(2-[[(5R)-5-[(2S)-1-[(2S)-2-cyclohexyl-2-[(2S)-2-(methylamino)propanamido]acetyl]pyrrolidine-2-amido]-5,6,7,8-tetrahydronaphthalen-1-yl]oxy]ethoxy)ethoxy]-1,2,3,4-tetrahydmnaphthalen-1-yl]pyrrolidine-2-carboxamide] | 7.00 to 8.00 | 8.00 to 9.00 | 8.00 to 9.00
6 | CN[C@@H](C)C(=O)N[C@@H](C)C(=O)N1CCC[C@H]1C(=O)N[C@@H]1CCOc2c(-c3cccc4c3OCC[C@H]4NC(=O)[C@@H]3CCCN3C(=O)[C@H](C)NC(=O)[C@H](C)NC)cccc21 [Compound V-A, (2S)-1-[(2S)-2-[(2S)-2-(methylamino)propanamido]propanoyl]-N-[(4R)-8-[(4R)-4-[(2S)-1-[(2S)-2-[(2S)-2-(methylamino)propanamido]propanoyl]pyrrolidine-2-amido]-3,4-dihydro-2H-1-benzopyran-8-yl]-3,4-dihydro-2H-1-benzopyran-4-yl]pyrrolidine-2-carboxamide] | 6.00 to 7.00 | 8.00 to 9.00 | 7.00 to 8.00
7 | CN[C@@H](C)C(=O)NC(C(=O)N1CCC[C@H]1C(=O)N[C@@H]1CCCc2cc(N3CCN(c4ccc5c(c4)CCC[C@H]5NC(=O)[C@@H]4CCCN4C(=O)[C@@H](NC(=O)[C@H](C)NC)C4CCCCC4)CC3)ccc21)C1CCCCC1 (stereo partly drawn) [VIII-B, (2S)-1-[(2S)-2-cyclohexyl-2-[(2S)-2-(methylamino)propanamido]acetyl]-N-[1(1R)-6-[4-[(5R)-5-[(2S)-1-[(2S)-2-cyclohexyl-2-[(2S)-2-(methylamino)propanamido]acetyl]pyrrolidine-2-amido]-5,6,7,8-tetrahydronaphthalen-2-yl]piperazin-1-yl]-1,2,3,4-tetrahydronaphthalen-1-yl]pyrrolidine-2-carboxamide] | < 6.00 | 7.00 to 8.00 | 6.00 to 7.00
8 | CC[C@H](NC(=O)[C@H](C)NC)C(=O)N1CCC[C@H]1C(=O)N[C@@H]1CCCc2c(-c3cccc4c3CCC[C@H]4NC(=O)[C@@H]3CCCN3C(=O)[C@H](CC)NC(=O)[C@H](C)NC)cccc21 [V-I, (2S)-1-[(2S)-2-[(2S)-2-(methylamino)propanamido]butanoyl]-N-[1(5R,5′R)-5′-[(2S)-1-[(2S)-2-[(2S)-2-(methylamino)propanamido]butanoyl]pyrrolidine-2-amido]-5H,5′H,6H,6′H,7H,7′H,8H,8′H-[1,1′-binaphthalen]-5-yl]pyrrolidine-2-carboxamide; Bis(Formic Acid)] | 7.00 to 8.00 | 8.00 to 9.00 | 8.00 to 9.00

More lines, now with the values ahead:

Row | pIC50 [1] | pIC50 [2] | pIC50 [3] | Structure (SMILES)
9 | 6.00 to 7.00 | 8.00 to 9.00 | 8.00 to 9.00 | CN[C@@H](C)C(=O)N[C@H](C(=O)N1CCC[C@H]1C(=O)N[C@@H]1CCCc2c(OCCOCCOc3cccc4c3CCC[C@H]4NC(=O)[C@@H]3CCCN3C(=O)[C@@H](NC(=O)[C@H](C)NC)C(C)C)cccc21)C(C)C [Compound II-A, (2S)-1-[(2S)-3-Methyl-2-[(2S)-2-(methylamino)propanamido]butanoyl]-N-[(1R)-5-[2-(2-{[(5R)-5-[(2S)-1-[(2S)-3-methyl-2-[(2S)-2-(methylamino)propanamido]butanoyl]pyrrolidine-2-amido]-5,6,7,8-tetrahydronaphthalen-1-yl]oxy}ethoxy)ethoxy]-1,2,3,4-tetrahydronaphthalen-1-yl]pyrrolidine-2-carboxamide]
10 | 7.00 to 8.00 | 8.00 to 9.00 | 7.00 to 8.00 | CC[C@H](NC(=O)[C@H](C)NC)C(=O)N1CCC[C@H]1C(=O)N[C@@H]1CCCc2c(-c3ccc(-c4cccc5c4CCC[C@H]5NC(=O)[C@@H]4CCCN4C(=O)[C@H](CC)NC(=O)[C@H](C)NC)cc3)cccc21 [III-I, (2S)-1-[(2S)-2-[(2S)-2-(methylamino)propanamido]butanoy]l-N-[(1R)-5-[4-[(5R)-5-[(2S)-1-[(2S)-2-[(2S)-2-(methylamino)propanamido]butanoyl]pyrrolidine-2-amido]-5,6,7,8-tetrahydronaphthalen-1-yl]phenyl]-1,2,3,4-tetrahydronaphthalen-1-yl]pyrrolidine-2-carboxamide]
11 | 7.00 to 8.00 | 8.00 to 9.00 | 8.00 to 9.00 | CN[C@@H](C)C(=O)N[C@H](C(=O)N1CCC[C@H]1C(=O)N[C@@H]1CCCc2c(NC(=O)c3cccc4c3CCC[C@H]4NC(=O)[C@@H]3CCCN3C(=O)[C@@H](NC(=O)[C@H](C)NC)C3CCCCC3)cccc21)C1CCCCC1 [Compound VII, (S)-1-((S)-2-Cyclohexyl-2-((S)-2-(methylamino)propanamido)acetyl)-N—((R)-5-(((R)-5-((S)-1-((S)-2-cyclohexyl-2-((S)-2-(methylamino)propanamido)acetyl)pyrrolidine-2-carboxamido)-5,6,7,8-tetrahydronaphthalen-1-yl)carbamoyl)-1,2,3,4-tetrahydronaphthalen-1-yl)pyrrolidine-2-carboxamide]
12 | 7.00 to 8.00 | 8.00 to 9.00 | 7.00 to 8.00 | CC[C@H](NC(=O)[C@H](C)NC)C(=O)N1CCC[C@H]1C(=O)N[C@@H]1CCCc2c(Nc3cccc4c3CCC[C@H]4NC(=O)[C@@H]3CCCN3C(=O)[C@H](CC)NC(=O)[C@H](C)NC)cccc21 [Compound VI-C, (2S,2'S)—N,N′-((1R,1′R)-azanediylbis(1,2,3,4-tetrahydronaphthalene-5,1-diyl))bis(1-((S)-2-((S)-2-(methylamino)propanamido)butanoyl)pyrrolidine-2-carboxamide)]
13 | < 6.00 | 8.00 to 9.00 | 7.00 to 8.00 | CN[C@@H](C)C(=O)N[C@H](C(=O)N1CCC[C@H]1C(=O)N[C@@H]1CCCc2cc(OCCOCCOc3ccc4c(c3)CCC[C@H]4NC(=O)[C@@H]3CCCN3C(=O)[C@@H](NC(=O)[C@H](C)NC)C3CCCCC3)ccc21)C1CCCCC1 [Compound II-D, (2S)-1-[(2S)-2-cyclohexyl-2-[(2S)-2-(methylamino)propanamido]acetyl]-N-[(1R)-6-[2-(2-[[(5R)-5-[(2S)-1-1(2S)-2-cyclohexyl-2-[(2S)-2-(methylamino)propanamido]acetyl]pyrrolidine-2-amido]-5,6,7,8-tetrahydronaphthalen-2-yl]oxy]ethoxy)ethoxyl-1,2,3,4-tetrahydronaphthalen-1-yl]pyrrolidine-2-carboxamide Formic Acid]
